One data set has as its system neutrophils. In words: Lung neutrophilia induced by bacterial lipopolysaccharide in male BALB/cJ mice: cells in BALF and lung tissue. The data set is classed as in vivo. Conditions: 5 mg i.p.; 24 hours after LPS. On the procedure: (§1) Male BALB/cJ mice (Iffa Credo, France), with average weight 30 g were randomly grouped (n=7 in testing group, 8 in positive control, 7 in negative control). Mice were administered intraperitoneally (i.p.) a single dose of 5 or 2.5 mg of test compound. Two hours after administration, 2 μg of bacterial lipopolysaccharide (LPS), dissolved in PBS in a volume of 60 μL, was intranasally administered to all experimental groups except the negative control group, which received the same volume (60 μL) of vehicle PBS. Animals were sacrificed approximately 24 hours after application of LPS in order to obtain bronchoalveolar lavage fluid (BALF), which was used to determine concentrations of IL-6 and TNF-α, absolute number of cells, and the percentage of neutrophils in BALF. Results are expressed as percentage of decrease of total cell number, relative number of neutrophils, and TNF-α, and IL-6 concentration in BALF of treated animals compared to positive control (LPS stimulated, but untreated animals).
(§2) Results are expressed as percentage of decrease of total cell number, relative number of neutrophils, and TNF-alpha and IL-6 concentration in BALF of treated animals compared to positive control (LPS stimulated, but untreated animals).
Besides accumulation of inflammatory cells in BALF, the extent and anatomic site of pulmonary inflammation induced by LPS was assessed 24 hours after PBS or LPS exposure. Accumulation of granulocytes and mononuclear cells in peribronchial (PB) and perivascular (PV) lung tissue areas and in alveolar spaces was monitored following sacrifice of the animals.

The next data set relates to IL-2. The data set can be described thus: Inhibition of IL-2 production by PHA-stimulated human PBMC in vitro. Conditions: 3 days. The data set is classed as cell-based. On the procedure:
(§3) Heparinized peripheral blood was obtained from healthy donors, and peripheral blood mononuclear cells (PBMC) were isolated by Histopaque 1077 (Sigma, USA) density centrifugation at 400×g for 30 minutes. Collected PBMC were centrifuged in plasma at 400×g for 10 min, resuspended and washed in RPMI 1640 (Institute of Immunology, Croatia) by centrifugation.
(§4) Peripheral blood mononuclear cells (PBMC), isolated as described above, were seeded in a 48-well plate at a concentration of 1×10^6 cells per well in the RPMI culture medium described above. Cells were stimulated with 10 μg/mL phytohaemagglutinin (PHA) (Sigma, USA) and incubated at 37° C., 5% CO2 in 90% humidity with tested compounds (10 and 50 μM) for 3 days. Cytokine concentrations were determined in supernatants by sandwich ELISA, using capture and detection antibodies (R&D, USA) according to the manufacturer's recommendations.
(§5) Inhibition (as percentage) was calculated using the following formula: % inhibition=(1−concentration of cytokines in sample/concentration of cytokines in positive control)×100.
(§6) The positive control refers to LPS-, PMA- or zymosan-stimulated samples that were not treated with test compounds.

In another data set the test system is IL-6. The data set can be described thus: Lung neutrophilia induced by bacterial lipopolysaccharide in male BALB/cJ mice: IL-6 in BALF. The data set is classed as in vivo. Particulars: 5 mg i.p.; 24 hours after LPS. On the procedure:
as §1, §2

Data set [1] concerns granulocytes. In words: Inhibition of degranulation of granulocytes (free neutrophil elastase activity). The data set is classed as cell-based, human. Particulars: for inhibition at 50 µM: Homo sapiens, Neutrophil, read-out: Percentage of inhibition of degranulation of granulocytes. The method, then:
(§7) Granulocytes were obtained from heparinized whole blood using density gradiant centrifugation. Erythrocytes were sedimented on 3% dextran T-500 (Amersham Pharmacia Biotech AB, Uppsala, Sweden). Leukocytes were centrifuged on Ficoll (Amersham Pharmacia Biotech AB, Uppsala, Sweden) for 35 min at 600 g at 20° C. The pellet of granulocytes was cleared from remaining erythrocytes by a brief hypotonic lysis.
1×10^6 granulocytes, isolated as described above, were resuspended in RPMI-1640 medium (Institute of Immunology, Croatia), and were incubated with 10 or 50 μM of test compound together with cytochalasine B (5 μg/mL) for 2 h at 37° C. Degranulation then was induced by the addition of 0.1 μM fMLP (Sigma, USA) or 0.5 μM A23187 (Calbiochem, USA). The activity of free neutrophil elastase was determined with a chromogenic substrate specific for human neutrophil elastase, such as N-(methoxysuccinyl)-L-alanyl-L-alanyl-L-prolyl-L-valine 4-nitroanilide (Sigma Chemical Company, St Louis, Mo., USA). Elastase activity, as a marker of primary granules, was assessed in supernatant using a spectrophotometer at an absorbance of 405 nm.
Results are expressed as the percent of inhibition of degranulation in unstimulated cells, and in stimulated cells treated with fMLP or A23187.

For a further data set, the system named is TNF-α. The data set can be described thus: Lung neutrophilia induced by bacterial lipopolysaccharide in male BALB/cJ mice: TNF-α in BALF. The data set is classed as in vivo. Conditions: 5 mg i.p.; 24 hours after LPS. On the procedure:
as §1, §2

Another data set relates to LPS-induced septic shock. The data set can be described thus: Septic shock induced by bacterial lipopolysaccharide in male BALB/cJ mice. Conditions: 24 hours. The data set is classed as in vivo. On the procedure:
Male BALB/cJ mice, (Iffa Credo, Lyon, France) 8 weeks old, weighing 25 g were randomly grouped (n=10 in testing groups and 15 in control group). Animals were primed with 4 μg bacterial lipopolysaccharide (LPS) that was dissolved in saline and administered i.pl. After 18-24 hours animals were challenged by an intravenous injection of 90 μg LPS in a volume of 0.2 mL. Animals were treated with the test compounds or the vehicle (control) intraperitoneally . . . or per os 30 min prior to each injection of LPS. Survival throughout 24 hours was monitored.

A further data set relates to IL-5. The data set can be described thus: Inhibition of IL-5 production by PHA-stimulated human PBMC in vitro. The data set is classed as cell-based. Conditions: 3 days. On the procedure:
as §3, §4, §5, §6

In data set [2] the test system is granulocytes. The data set is classed as in vitro ADME. Conditions: human, 180 min, 10 μM. The method, then:
as §7
7.5×10^6 granulocytes, isolated as described above, were suspended in 3 mL of RPMI 1640 (Institute of Immunology, Croatia) containing 10 μM of tested macrolide. Samples were incubated at 37° C. for 180 min. Following incubation, the samples were centrifuged through the layer of Poly(dimethylsiloxane-co-diphenylsiloxane), dihydroxy terminated-silicone oil (Aldrich Chemical Company, Milwaukee, USA). The pellet was resuspended in 0.5% Triton X-100 (Sigma, St. Louis, USA) in deionized water (MilliQ, Millipore Corporation, Bedford, USA). The suspension was sonicated, proteins were precipitated with acetonitrile, and the concentration of macrolide in the supernatants was determined by liquid chromatography-mass spectrometry (LC-MS).
Intracellular concentrations of the test compounds were calculated from the mean cell number recovered after centrifuging through silicone oil. According to the literature, about 1 million neutrophils is considered to have a volume of 0.24 μL (Vazifeh et al., Antimicrob Agents Chemo. 1997; 41: 2099-2107). To estimate the extent of macrolide accumulation, the intracellular to extracellular concentration ratio (I/E) was calculated, where E (due to a large volume of incubation medium) was taken as constant (10 μM). Results are expressed relative to azithromycin according to the following equation: % of azithromycin uptake =(I/E of a substance/I/E of azithromycin)×100. I/E values obtained for azithromycin were 164±10.

Read-outs that look alike come from different tables or passages of the source.

For the molecule `CCC1OC(=O)C(C)C(OC2CC(C)(OC)C(OC(=O)CCN(CC)CC)C(C)O2)C(C)C(OC2OC(C)CC(N(C)C)C2O)C(C)(OC)CC(C)C(=O)NC(C)C(O)C1(C)O` (stereo not shown) [Example 8, 4″-O-(3-Diethylamino-propionyl)-6-O-methyl-9a-aza-9a-homoerythromycin A], the “% decrease of neutrophils in BALF” value with neutrophils was determined as 52%. Also, the “% decrease of total cell no. in BALF” value in the data set with neutrophils is 84%. Also, the “Percentage of inhibition of IL-2 production” value in the data set with IL-2 (10 μM) and in the data set on IL-2 (50 μM) was 100% in each case. Also, the “Percentage of decrease of IL-6 concentration in BALF” value with IL-6 is 67%. Also, the “Percentage of inhibition of degranulation of granulocytes” value in the data set with granulocytes [1] (A23187 0.5 μM, compound 10 μM) was 10%; in the data set on granulocytes [1] (A23187 0.5 μM, compound 50 μM), 24%; with granulocytes [1] (fMLP 0.1 μM, compound 10 μM), 52%; with granulocytes [1] (fMLP 0.1 μM, compound 50 μM), 72%. In addition, the “Percentage of decrease of TNF-α concentration in BALF” value in the data set with TNF-α is reported as 69%. Further, the “Survival (%)” value in the data set on LPS-induced septic shock (10 mg/kg i.p.) is on record as 50%; in the data set on LPS-induced septic shock (100 mg/kg p.o.), 100%. Further, the “Percentage of inhibition of IL-5 production” value in the data set with IL-5 (10 μM) was 34%; in the data set on IL-5 (50 μM) it was 85%.
One may read the inhibition as the change of the read-out against control, counted positive when it falls. Take `CC[C@H]1OC(=O)[C@H](C)[C@@H](O[C@H]2C[C@@](C)(OC)[C@@H](O)[C@H](C)O2)[C@H](C)[C@@H](O[C@@H]2O[C@H](C)C[C@H](N(C)C)[C@H]2O)[C@](C)(O)C[C@@H](C)CN(C)[C@H](C)[C@@H](O)[C@]1(C)O` [azithromycin, reference compound]: in the data set on granulocytes [2], the “Uptake (% azithromycin)” value came to 100 % azithromycin. The “intracellular to extracellular concentration ratio (I/E)” value in the data set with granulocytes [2] came to 164±10. Further, the “% decrease of neutrophils in BALF” value with neutrophils stood at 37%. In addition, in the data set with neutrophils, the “% decrease of total cell no. in BALF” value came out at 77%. The “Percentage of decrease of IL-6 concentration in BALF” value in the data set on IL-6 stood at 72%. Also, the inhibition at 50 µM with granulocytes [1] (A23187 0.5 μM, compound 50 μM) came out at 15%; in the data set with granulocytes [1] (fMLP 0.1 μM, compound 50 μM), 36%. For the same molecule, in the data set on TNF-α, the “Percentage of decrease of TNF-α concentration in BALF” value is on record as 66%. For the same molecule, the “Survival (%)” value amounted to 30% in the data set with LPS-induced septic shock (1 mg/kg p.o.), 60% in the data set on LPS-induced septic shock (10 mg/kg p.o.) and 70% in the data set with LPS-induced septic shock (100 mg/kg p.o.).
